Measurements: patent publication US9714250B2, “Crystalline forms of temozolomide and the method for preparing same” (Jiangsu Tasly Diyi Pharmaceutical Co., Ltd., priority 2013, dated 2017)

Assay: Stability test, overall conclusions
Type: physicochemical
Details: light exposure, high-temperature, high-humidity and accelerated tests
Method: In the following test, related substances were determined as follows: HPLC method was used and chromatographic conditions were as follows: C18 column using octadecylsilane bonded silica gel as the filler, isocratic elution using methanol: 0.5% glacial acetic acid solution (10:90) as the mobile phase, and detection wavelength was at 254 nm.
It should be noted that each crystalline form of Form A, Form B and Form C has similar stability properties. Hereinafter, Form A0, Form B0 and Form C were chosen only for illustrative purpose.
For Cn1nnc2c(C(N)=O)ncn2c1=O [Form C, Temozolomide], the “Change in the appearance and color, the drying loss, the content and the related substances” value was “no obvious change”. With Cn1nnc2c(C(N)=O)ncn2c1=O [Form B, Temozolomide] the “Change in the appearance and color, the drying loss, the content and the related substances” value was “no obvious change”. With Cn1nnc2c(C(N)=O)ncn2c1=O [Form A, Temozolomide] the “Change in the appearance and color, the drying loss, the content and the related substances” value was “no obvious change”.
